Experimental findings from US20220323406A1, “METHODS AND COMPOSITIONS FOR DIFFERENTIATING STEM CELLS” (Massachusetts Institute of Technology, priority 2019, published 2022) are described below.

Assay [1] deals with ENR+CD organoids (ISC to Paneth cell differentiation). The experiment in a line: Primary screen: basal (non-stimulated) lysozyme secretion LYZ.NS, 2.5-D 384-well ENR+CD organoid differentiation. In kind it is cell-based, mouse. As to conditions: primary screen; for Z.LYZ.NS: standard z score. From the text: (§1) High-throughput screening.
The test system is the same in assay [2]. The assay can be described thus: Primary screen: CCh-stimulated lysozyme secretion LYZ.S, 2.5-D 384-well ENR+CD organoid differentiation. Format: cell-based, mouse. The conditions noted are these: primary screen.
Text: as §1

The subject of the next assay is ENR+CD organoids. The experiment in a line: Primary screen: ATP (CellTiter-Glo 3D, CTG) cell number/viability, 2.5-D 384-well ENR+CD organoids.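 As to all read-outs here: compounds given at plating and again on day 3 over a 6-day differentiation from ENR+CV stem-cell-enriched precursors, ATP measured on day 6, plate median as control.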 As to conditions: primary screen; for Z.CTG: standard z score. A general note: In ATP-based viability assays light output follows the ATP content of the culture.
[3] abbreviates: dose 0.08 uM, FC vs plate median.
The mark [4] stands for this setting: dose 0.40 uM, FC vs plate median.
[5] abbreviates: dose 2.00 uM, FC vs plate median.
The mark [6] stands for this setting: dose 10.00 uM, FC vs plate median.

Where a name gives a salt, the structure may show the parent alone.

`Cc1sc2c(c1C)C(c1ccc(Cl)cc1)=N[C@@H](CC(=O)Nc1ccc(O)cc1)c1nnc(C)n1-2` [OTX015]: the Z.LYZ.NS in assay [1] (dose 0.08 uM) is on record as −1.726; in assay [1] (dose 0.40 uM), −2.317; in assay [1] (dose 2.00 uM), −2.082; in assay [1] (dose 10.00 uM), −2.225. For the same molecule, the Dose.FC.LYZ.NS in assay [1] (setting [3]) is reported as −0.198 log2 fold change; in assay [1] (setting [4]), −0.266 log2 fold change; in assay [1] (setting [5]) it was −0.239 log2 fold change; in assay [1] (setting [6]), −0.256 log2 fold change. Moreover, the Dose.FC.LYZ.S is listed as −0.279 log2 fold change in assay [2] (setting [3]), −0.350 log2 fold change in assay [2] (setting [4]), −0.350 log2 fold change in assay [2] (setting [5]) and −0.362 log2 fold change in assay [2] (setting [6]). Further, the Dose.FC.CTG in the assay with ENR+CD organoids (setting [3]) is −0.038 log2 fold change; with ENR+CD organoids (setting [4]), −0.398 log2 fold change; in the assay with ENR+CD organoids (setting [5]) it was −0.686 log2 fold change; in the assay on ENR+CD organoids (setting [6]), −0.908 log2 fold change.

As to `S=C=Nc1cccc(NC(=S)NCCCCNC(=S)Nc2cccc(N=C=S)c2)c1` [MRS 2578], the Z.LYZ.NS in assay [1] (dose 0.08 uM) is listed as 1.011; in assay [1] (dose 0.40 uM), 0.311; in assay [1] (dose 2.00 uM), 0.270; in assay [1] (dose 10.00 uM), 0.276. Moreover, the Dose.FC.LYZ.NS is recorded as 0.116 log2 fold change in assay [1] (setting [3]), 0.036 log2 fold change in assay [1] (setting [4]), 0.031 log2 fold change in assay [1] (setting [5]) and 0.032 log2 fold change in assay [1] (setting [6]). The Dose.FC.LYZ.S in assay [2] (setting [3]) worked out at 0.095 log2 fold change; in assay [2] (setting [4]) it was 0.067 log2 fold change; in assay [2] (setting [5]), 0.023 log2 fold change; in assay [2] (setting [6]), 0.013 log2 fold change. Further, the Z.CTG is −0.339 in the assay on ENR+CD organoids (dose 0.08 uM), 0.146 in the assay with ENR+CD organoids (dose 0.40 uM), −0.381 in the assay with ENR+CD organoids (dose 2.00 uM) and −0.544 in the assay with ENR+CD organoids (dose 10.00 uM). In addition, the Dose.FC.CTG with ENR+CD organoids (setting [3]) was −0.142 log2 fold change; with ENR+CD organoids (setting [4]), 0.061 log2 fold change; in the assay with ENR+CD organoids (setting [5]), −0.159 log2 fold change; in the assay with ENR+CD organoids (setting [6]), −0.228 log2 fold change.

Turning to `Cc1cc(C(C)(C)C)c(O)c(C)c1CC1=NCCN1` [Oxymetazoline HCl], the Z.LYZ.NS in assay [1] (dose 0.08 uM) came to 0.515; in assay [1] (dose 0.40 uM), 0.134; in assay [1] (dose 2.00 uM), 0.199; in assay [1] (dose 10.00 uM) it was 0.065. The Dose.FC.LYZ.NS is given as 0.059 log2 fold change in assay [1] (setting [3]), 0.015 log2 fold change in assay [1] (setting [4]), 0.023 log2 fold change in assay [1] (setting [5]) and 0.007 log2 fold change in assay [1] (setting [6]). Further, the Dose.FC.LYZ.S is listed as 0.143 log2 fold change in assay [2] (setting [3]), 0.116 log2 fold change in assay [2] (setting [4]), −0.012 log2 fold change in assay [2] (setting [5]) and −0.046 log2 fold change in assay [2] (setting [6]). Further, the Dose.FC.CTG is reported as 0.143 log2 fold change in the assay on ENR+CD organoids (setting [3]), 0.118 log2 fold change with ENR+CD organoids (setting [4]), −0.007 log2 fold change in the assay on ENR+CD organoids (setting [5]) and 0.118 log2 fold change with ENR+CD organoids (setting [6]).

Turning to `COC(=O)CCSCc1ccc(-c2onc(C)c2NC(=O)OC(C)c2ccccc2Cl)cc1` (centres unmarked) [Ki16198], the “Dose.FC.LYZ.NS (log2 fold change)” value is 0.005 in assay [1] (dose 0.08 uM), −0.009 in assay [1] (dose 0.40 uM), 0.060 in assay [1] (dose 2.00 uM) and −0.103 in assay [1] (dose 10.00 uM). In addition, the “Z.LYZ.NS (standard z score)” value is listed as 0.044 in assay [1] (dose 0.08 uM), −0.076 in assay [1] (dose 0.40 uM), 0.519 in assay [1] (dose 2.00 uM) and −0.899 in assay [1] (dose 10.00 uM). Also, the “Dose.FC.LYZ.S (log2 fold change)” value in assay [2] (dose 0.08 uM) is recorded as 0.027; in assay [2] (dose 0.40 uM) it was 0.031; in assay [2] (dose 2.00 uM), −0.015; in assay [2] (dose 10.00 uM), −0.037. Besides, the “Dose.FC.CTG (log2 fold change)” value is reported as −0.011 with ENR+CD organoids (dose 0.08 uM), −0.108 in the assay with ENR+CD organoids (dose 0.40 uM), −0.033 in the assay on ENR+CD organoids (dose 2.00 uM) and 0.022 in the assay on ENR+CD organoids (dose 10.00 uM). In addition, the “Z.CTG (standard z score)” value with ENR+CD organoids (dose 0.08 uM) was −0.026; in the assay with ENR+CD organoids (dose 0.40 uM), −0.258; in the assay with ENR+CD organoids (dose 2.00 uM) it was −0.078; in the assay on ENR+CD organoids (dose 10.00 uM) it was 0.052.

`CCN1CCN(c2ccc(Nc3cc(N(C)C(=O)Nc4c(Cl)c(OC)cc(OC)c4Cl)ncn3)cc2)CC1` [BGJ398 (NVP-BGJ398)]: the Dose.FC.LYZ.NS in assay [1] (dose 0.08 uM) is reported as −0.002 log2 fold change; in assay [1] (dose 0.40 uM), −0.060 log2 fold change; in assay [1] (dose 2.00 uM), −0.052 log2 fold change; in assay [1] (dose 10.00 uM), −0.269 log2 fold change. The “Z.LYZ.NS (standard z score)” value in assay [1] (dose 0.08 uM) was −0.017; in assay [1] (dose 0.40 uM), −0.520; in assay [1] (dose 2.00 uM), −0.450; in assay [1] (dose 10.00 uM), −2.345. The Dose.FC.LYZ.S was −0.036 log2 fold change in assay [2] (dose 0.08 uM), 0.002 log2 fold change in assay [2] (dose 0.40 uM), −0.062 log2 fold change in assay [2] (dose 2.00 uM) and −0.350 log2 fold change in assay [2] (dose 10.00 uM). For the same molecule, the Dose.FC.CTG with ENR+CD organoids (dose 0.08 uM) is recorded as −0.054 log2 fold change; in the assay on ENR+CD organoids (dose 0.40 uM) it was 0.026 log2 fold change; with ENR+CD organoids (dose 2.00 uM), −0.185 log2 fold change; in the assay on ENR+CD organoids (dose 10.00 uM), −1.500 log2 fold change. In addition, the “Z.CTG (standard z score)” value in the assay with ENR+CD organoids (dose 0.08 uM) is recorded as −0.128; with ENR+CD organoids (dose 0.40 uM) it was 0.063; in the assay with ENR+CD organoids (dose 2.00 uM), −0.442; with ENR+CD organoids (dose 10.00 uM), −3.583.
